From the Kinase Knowledgebase extract (Sharma et al. 2016)

Tests used:
[1] = target: PIK3CA (human) (UniProt P42336); assay: Assessment of PIK3CA Kinase Activity
[2] = target: PIK3CB (Human) (UniProt P42338); assay: Assessment of PIK3CB Kinase Activity
Chain of PIK3CB (Human) (P42338 whole entry, looked up): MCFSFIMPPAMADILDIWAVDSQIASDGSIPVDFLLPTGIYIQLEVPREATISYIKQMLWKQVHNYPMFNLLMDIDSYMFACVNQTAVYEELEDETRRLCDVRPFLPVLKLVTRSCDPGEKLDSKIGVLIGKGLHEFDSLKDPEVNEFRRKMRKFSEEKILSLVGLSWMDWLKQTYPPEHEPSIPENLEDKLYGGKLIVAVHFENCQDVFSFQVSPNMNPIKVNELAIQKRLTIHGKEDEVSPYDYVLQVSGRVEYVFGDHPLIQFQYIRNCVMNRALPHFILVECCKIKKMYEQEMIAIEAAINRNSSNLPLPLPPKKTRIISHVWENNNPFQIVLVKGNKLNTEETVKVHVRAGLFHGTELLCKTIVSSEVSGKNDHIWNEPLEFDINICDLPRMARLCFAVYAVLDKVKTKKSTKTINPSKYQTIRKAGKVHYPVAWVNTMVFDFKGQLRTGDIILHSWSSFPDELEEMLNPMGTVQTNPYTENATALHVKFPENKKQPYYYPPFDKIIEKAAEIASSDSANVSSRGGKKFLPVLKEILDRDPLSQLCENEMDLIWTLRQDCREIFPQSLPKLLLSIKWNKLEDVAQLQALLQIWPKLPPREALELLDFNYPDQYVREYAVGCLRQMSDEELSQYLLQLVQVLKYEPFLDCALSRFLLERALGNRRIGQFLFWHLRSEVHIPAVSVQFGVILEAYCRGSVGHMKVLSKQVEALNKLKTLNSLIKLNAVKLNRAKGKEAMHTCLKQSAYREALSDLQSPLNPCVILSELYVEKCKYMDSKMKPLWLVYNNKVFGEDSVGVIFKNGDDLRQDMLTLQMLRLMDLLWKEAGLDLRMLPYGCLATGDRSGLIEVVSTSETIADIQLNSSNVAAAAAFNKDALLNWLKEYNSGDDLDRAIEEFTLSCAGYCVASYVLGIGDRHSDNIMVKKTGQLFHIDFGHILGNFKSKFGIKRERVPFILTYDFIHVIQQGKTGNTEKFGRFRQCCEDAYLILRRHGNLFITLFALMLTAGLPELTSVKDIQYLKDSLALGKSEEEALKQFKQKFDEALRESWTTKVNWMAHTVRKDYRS

Chain of PIK3CA (human) (P42336 whole entry, looked up): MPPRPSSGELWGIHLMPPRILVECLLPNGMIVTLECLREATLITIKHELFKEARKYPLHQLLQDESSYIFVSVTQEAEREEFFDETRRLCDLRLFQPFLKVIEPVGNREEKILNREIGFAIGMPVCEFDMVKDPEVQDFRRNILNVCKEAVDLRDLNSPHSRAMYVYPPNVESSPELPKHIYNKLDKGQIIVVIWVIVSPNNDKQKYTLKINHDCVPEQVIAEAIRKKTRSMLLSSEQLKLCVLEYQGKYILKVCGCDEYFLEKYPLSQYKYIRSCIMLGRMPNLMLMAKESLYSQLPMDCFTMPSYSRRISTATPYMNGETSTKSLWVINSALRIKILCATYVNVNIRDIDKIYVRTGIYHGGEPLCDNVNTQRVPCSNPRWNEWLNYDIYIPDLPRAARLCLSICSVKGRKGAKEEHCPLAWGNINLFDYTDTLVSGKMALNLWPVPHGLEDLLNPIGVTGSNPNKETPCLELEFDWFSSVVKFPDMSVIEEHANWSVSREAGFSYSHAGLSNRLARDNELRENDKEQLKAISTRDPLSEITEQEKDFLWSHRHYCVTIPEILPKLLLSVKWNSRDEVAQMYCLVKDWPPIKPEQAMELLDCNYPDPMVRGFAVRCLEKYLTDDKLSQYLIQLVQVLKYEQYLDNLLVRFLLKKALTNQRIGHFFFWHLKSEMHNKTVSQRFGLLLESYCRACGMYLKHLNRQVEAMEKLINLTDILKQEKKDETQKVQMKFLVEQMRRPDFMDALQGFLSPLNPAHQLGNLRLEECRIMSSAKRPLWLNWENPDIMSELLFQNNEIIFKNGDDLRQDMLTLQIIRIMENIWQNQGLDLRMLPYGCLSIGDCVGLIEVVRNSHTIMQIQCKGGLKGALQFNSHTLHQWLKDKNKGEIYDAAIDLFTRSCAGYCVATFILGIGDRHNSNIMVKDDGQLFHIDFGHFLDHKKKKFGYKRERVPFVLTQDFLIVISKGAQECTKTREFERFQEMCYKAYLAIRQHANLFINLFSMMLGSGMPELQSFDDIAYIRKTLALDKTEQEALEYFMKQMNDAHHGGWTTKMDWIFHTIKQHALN

Row | IC50 [1] | IC50 [2] | SMILES
1 | < 10 nM | < 10 nM | COc1c(OCCCN2C[C@@H](C)O[C@@H](C)C2)ccc2c1N=C(NC(=O)c1cncnc1)N1CCN=C21
2 | < 10 nM | < 10 nM | COc1c(OCCN(C)C)ccc2c1N=C(NC(=O)c1sc(C)nc1C)N1CCN=C21
3 | < 10 nM | < 10 nM | COc1c(OCCN(C)C)ccc2c1N=C(NC(=O)c1cncnc1)N1CCN=C21
4 | < 10 nM | < 10 nM | COc1c(OCCCN2CCOCC2)ccc2c1N=C(NC(=O)c1ccc(N)nc1C)N1CCN=C21
5 | < 10 nM | < 10 nM | CCN(CC)CCOc1ccc2c(c1OC)N=C(NC(=O)c1cccnc1)N1CCN=C21
6 | < 10 nM | < 10 nM | COc1c(OCCN(C)C)ccc2c1N=C(NC(=O)c1cccnc1)N1CCN=C21
7 | < 10 nM | < 10 nM | COc1c(OCCCN2C[C@@H](C)O[C@@H](C)C2)ccc2c1N=C(NC(=O)c1sc(C)nc1C)N1CCN=C21
8 | < 10 nM | < 10 nM | COc1c(OCCCN(C)C)ccc2c1N=C(NC(=O)c1cnc(NCCN(C)C)nc1)N1CCN=C21
9 | < 10 nM | < 10 nM | COc1c(OCCCN(C)C)ccc2c1N=C(NC(=O)c1cnc(N)nc1)N1CCN=C21
10 | < 10 nM | < 10 nM | COc1c(OCCCN2C[C@@H](C)O[C@@H](C)C2)ccc2c1N=C(NC(=O)c1cnc(N)nc1)N1CCN=C21
11 | < 10 nM | < 10 nM | COc1c(OCCCN2CCOCC2)ccc2c1N=C(NC(=O)c1sc(C)nc1C)N1CCN=C21
12 | < 10 nM | < 10 nM | COc1c(OCCCN2CCOCC2)ccc2c1N=C(NC(=O)c1cnc(N)nc1C)N1CCN=C21
13 | < 10 nM | < 10 nM | COc1cncc(C(=O)NC2=Nc3c(ccc(OCCCN4CCOCC4)c3OC)C3=NCCN23)c1
14 | < 10 nM | < 10 nM | COc1c(OCCCN2CCOCC2)ccc2c1N=C(NC(=O)c1ccc(C)nc1)N1CCN=C21
15 | < 10 nM | < 10 nM | COc1c(OCCCN2CCOCC2)ccc2c1N=C(NC(=O)c1cncnc1)N1CCN=C21
16 | < 10 nM | < 10 nM | COc1c(OCCN2CCCC2)ccc2c1N=C(NC(=O)c1cccnc1)N1CCN=C21
17 | < 10 nM | < 10 nM | COCCNc1ccc(C(=O)NC2=Nc3c(ccc(OCCCN4CCOCC4)c3OC)C3=NCCN23)cn1
18 | < 10 nM | < 10 nM | CNC(=O)Nc1ccc(C(=O)NC2=Nc3c(ccc(OCCCN4CCOCC4)c3OC)C3=NCCN23)cn1
19 | < 10 nM | < 10 nM | CNCCCOc1ccc2c(c1OC)N=C(NC(=O)c1cccnc1)N1CCN=C21
20 | < 10 nM | < 10 nM | COc1c(OCCCN2C[C@@H](C)O[C@@H](C)C2)ccc2c1N=C(NC(=O)c1cccnc1)N1CCN=C21

Row | IC50 [1] | IC50 [2] | SMILES
21 | < 10 nM | < 10 nM | COc1c(OCCCN2CCOCC2)ccc2c1N=C(NC(=O)c1ccc(NCc3ccco3)nc1)N1CCN=C21
22 | < 10 nM | < 10 nM | CCN1CCOC(CCOc2ccc3c(c2OC)N=C(NC(=O)c2cccnc2)N2CCN=C32)C1 (centres undefined)
23 | < 10 nM | < 10 nM | COc1c(OCCCN2CCOCC2)ccc2c1N=C(NC(=O)c1cncn1C)N1CCN=C21
24 | < 10 nM | < 10 nM | COc1c(OCC2CNCCO2)ccc2c1N=C(NC(=O)c1cccnc1)N1CCN=C21 (centres undefined)
25 | < 10 nM | < 10 nM | COc1c(OCCCN2CCOCC2)ccc2c1N=C(NC(=O)c1cnc(NCCN(C)C)nc1)N1CCN=C21
26 | < 10 nM | < 10 nM | COc1c(OCCCN2CCOCC2)ccc2c1N=C(NC(=O)c1ccnc(N)c1)N1CCN=C21
27 | < 10 nM | < 10 nM | COc1c(OCCCN2CCOCC2)ccc2c1N=C(NC(=O)c1sc(N)nc1C)N1CCN=C21
28 | < 10 nM | < 10 nM | CCCc1nc(N)ncc1C(=O)NC1=Nc2c(ccc(OCCCN3CCOCC3)c2OC)C2=NCCN12
29 | < 10 nM | < 10 nM | COc1c(OCC2CN(C)CCO2)ccc2c1N=C(NC(=O)c1cccnc1)N1CCN=C21 (centres undefined)
30 | < 10 nM | < 10 nM | COc1c(OCCCN2CCOCC2)ccc2c1N=C(NC(=O)c1cnc(N)o1)N1CCN=C21
31 | < 10 nM | < 10 nM | COc1c(OCCCN(C)C)ccc2c1N=C(NC(=O)c1cnc(N)s1)N1CCN=C21
32 | < 10 nM | – | COc1c(OCCCN(C)C)ccc2c1N=C(NC(=O)c1ccc[n+]([O-])c1)N1CCN=C21
33 | < 10 nM | < 10 nM | COc1c(OCCCN2CCOCC2)ccc2c1N=C(NC(=O)c1ccc(NC(=O)C(C)C)nc1)N1CCN=C21
34 | < 10 nM | < 10 nM | COc1c(OCCCN2C[C@@H](C)O[C@@H](C)C2)ccc2c1N=C(NC(=O)c1ccc(N)nc1)N1CCN=C21
35 | < 10 nM | < 10 nM | COc1c(OCCCN2CCOCC2)ccc2c1N=C(NC(=O)c1ccc(N3CC[C@@H](N)C3)nc1)N1CCN=C21
36 | < 10 nM | < 10 nM | COc1c(OCCCN2CCOCC2)ccc2c1N=C(NC(=O)c1ccc(N(C)C)nc1)N1CCN=C21
37 | < 10 nM | < 10 nM | COc1c(OCCCN(C)C)ccc2c1N=C(NC(=O)c1ccc(N)nc1)N1CCN=C21
38 | < 10 nM | < 10 nM | COc1c(OCCCN2CCOCC2)ccc2c1N=C(NC(=O)c1ccc(NC(=O)C3CC3)nc1)N1CCN=C21
39 | < 10 nM | < 10 nM | COc1c(OCCCN2C[C@@H](C)O[C@@H](C)C2)ccc2c1N=C(NC(=O)c1ccc(NC(C)=O)nc1)N1CCN=C21
40 | < 10 nM | < 10 nM | COc1c(OCCCN2CCOCC2)ccc2c1N=C(NC(=O)c1ccc(F)nc1)N1CCN=C21

Row | IC50 [1] | IC50 [2] | SMILES
41 | < 10 nM | < 10 nM | COc1c(OCCCN2CCOCC2)ccc2c1N=C(NC(=O)c1cccnc1)N1CCN=C21
42 | < 10 nM | < 10 nM | COc1c(OCCCN)ccc2c1N=C(NC(=O)c1cccnc1)N1CCN=C21
43 | < 10 nM | < 10 nM | COc1c(OCCCN2CCOCC2)ccc2c1N=C(NC(=O)c1ccc(NC(=O)NC(C)C)nc1)N1CCN=C21
44 | < 10 nM | < 10 nM | COc1c(OCCN2CCOCC2)ccc2c1N=C(NC(=O)c1cccnc1)N1CCN=C21
45 | < 10 nM | < 10 nM | COCCN1CCOC(CCCOc2ccc3c(c2OC)N=C(NC(=O)c2cccnc2)N2CCN=C32)C1 (centres undefined)
46 | < 10 nM | < 10 nM | COc1c(OCCCN2CCOCC2)ccc2c1N=C(NC(=O)c1cnc(N)c(Br)c1)N1CCN=C21
47 | < 10 nM | < 10 nM | COCCNc1ncc(C(=O)NC2=Nc3c(ccc(OCCCN4CCOCC4)c3OC)C3=NCCN23)cn1
48 | < 10 nM | < 10 nM | COc1c(OCCN2CCCCC2)ccc2c1N=C(NC(=O)c1cccnc1)N1CCN=C21
49 | < 10 nM | < 10 nM | COc1c(OCCCN2CCOCC2)ccc2c1N=C(NC(=O)c1ccc(N3CC[C@H](N)C3)nc1)N1CCN=C21
50 | < 10 nM | < 10 nM | COc1c(OCC(CO)CN2CCOCC2)ccc2c1N=C(NC(=O)c1cccnc1)N1CCN=C21 (centres undefined)
51 | < 10 nM | < 10 nM | COCCN1CCOC(COc2ccc3c(c2OC)N=C(NC(=O)c2cccnc2)N2CCN=C32)C1 (centres undefined)
52 | < 10 nM | < 10 nM | COc1c(OCCCN2C[C@@H](C)O[C@@H](C)C2)ccc2c1N=C(NC(=O)c1ccc(C)nc1)N1CCN=C21
53 | < 10 nM | < 10 nM | CCN(CC)CCCOc1ccc2c(c1OC)N=C(NC(=O)c1cccnc1)N1CCN=C21
54 | < 10 nM | < 10 nM | COc1c(OCCCN2CCOCC2)ccc2c1N=C(NC(=O)c1cnc(N)s1)N1CCN=C21
55 | < 10 nM | < 10 nM | COc1c(OCCCN2CCOCC2)ccc2c1N=C(NC(=O)c1cnc(NCCO)nc1)N1CCN=C21
56 | < 10 nM | < 10 nM | COc1c(OCCCC2CN(CC3CCC3)CCO2)ccc2c1N=C(NC(=O)c1cccnc1)N1CCN=C21 (centres undefined)
57 | < 10 nM | < 10 nM | COc1c(OCCCN(C)C)ccc2c1N=C(NC(=O)c1cccnc1)N1CCN=C21
58 | < 10 nM | < 10 nM | COc1c(OCCCN2CCOCC2)ccc2c1N=C(NC(=O)c1ccc(N)nc1)N1CCN=C21
59 | < 10 nM | < 10 nM | COc1c(OCCCN2CCCCC2)ccc2c1N=C(NC(=O)c1cccnc1)N1CCN=C21

Row | SMILES | IC50 [1] | IC50 [2]
60 | COc1c(OCCCN2CCOC(CO)C2)ccc2c1N=C(NC(=O)c1cccnc1)N1CCN=C21 (centres undefined) | < 10 nM | < 10 nM
